Experimental data from BindingDB's records for doi:10.1021/jm00041a005 (Agouron Pharmaceuticals, 1994).

Target: T1, Dimer of Gag-Pol polyprotein [489-587] (Human immunodeficiency virus 1, UniProt P12497)
T1 construct: 489-587
Assay: Protease Inhibition Assay
Settings: pH 5.5; 37 °C
Description: Protease activity was measured by continuous chromogenic assay. The chromogenic peptide His-Lys-Ala-Arg-Val-Leu- (p-NO2-Phe)-Glu-Ala-Nleu-Ser (Bachem) was used as a substrate. Reactions were followed by the decrease of absorbance at 300 nm measured by spectrophotometer. Experimental results were analyzed by the nonlinear regression analysis, using a mathematical model for tight binding inhibitors.

First: NC(=O)C[C@H](NC(=O)c1ccc2ccccc2n1)C(=O)N[C@@H](Cc1ccccc1)[C@@H](O)C[C@@H](Cc1ccccc1)C(=O)NC(c1ccccc1)c1cc2ccccc2[nH]1 (stereo partly drawn) [2 -Benzyl-4-h ydrox y-5((N -2-quinaloyl-L-asparagyl)amidno)-6-phenylhexanoic Acid (a-(2-indolylbenzyl)amide]
Second: NC(=O)C[C@H](NC(=O)c1ccc2ccccc2n1)C(=O)N[C@@H](Cc1ccccc1)[C@@H](O)CCC(=O)NC(c1ccccc1)c1cc2ccccc2[nH]1 (stereo partly drawn) [(2S)-N-[(2S,3S)-3-hydroxy-5-{[1H-indol-2-yl(phenyl)methyl]carbamoyl}-1-phenylpentan-2-yl]-2-(quinolin-2-ylformamido)butanediamide]
The Ki of the first is 30-fold higher: 1280 nM for the first, 43 nM for the second.

Going from `NC(=O)C[C@H](NC(=O)c1ccc2ccccc2n1)C(=O)N[C@@H](Cc1ccccc1)[C@@H](O)CCC(=O)NC(c1ccccc1)c1nc2ccccc2[nH]1` (stereo partly drawn) [4-Hydroxy-5-( (N-2-quinaloyl-L-asparagyl)amino)-6-phenylhexanoic Acid (a-(2-benzyimidazolyl)benzyl)amide] to `Cc1cccc(C(NC(=O)CC[C@H](O)[C@H](Cc2ccccc2)NC(=O)[C@H](CC(N)=O)NC(=O)c2ccc3ccccc3n2)c2cc3ccccc3[nH]2)c1` (stereo partly drawn) [4-Hydroxy-5-((N-2-quinaloyl-L-asparagyl)amino)-6-phenylhexanoic Acid (a-(2-indolyl)-m-methylbenzyl)amide], the Ki falls from 480 nM to 39 nM (12-fold).

Compared with `C[C@H](N)C(=O)N[C@@H](C)C(=O)N[C@@H](Cc1ccccc1)[C@@H](O)CCC(=O)NC(c1ccccc1)c1nc2ccccc2[nH]1` (stereo partly drawn) [5-(L-Alanyl-L-alanylamino)-4-hydroxy-phenylhexanoic Acid ((1H-BenzimiaazOl-2-yl)phenylmethyl)amide], `NC(=O)C[C@H](NC(=O)c1ccc2ccccc2n1)C(=O)N[C@@H](Cc1ccccc1)[C@@H](O)CCC(=O)NC(c1cccc(C(F)(F)F)c1)c1cc2ccccc2[nH]1` (stereo partly drawn) [(2S)-N-[(2S,3S)-3-hydroxy-5-({1H-indol-2-yl[3-(trifluoromethyl)phenyl]methyl}carbamoyl)-1-phenylpentan-2-yl]-2-(quinolin-2-ylformamido)butanediamide] is 160-fold lower in Ki: 5370 nM for the first, 33 nM for the second.

First: NC(=O)C[C@H](NC(=O)c1ccc2ccccc2n1)C(=O)N[C@@H](Cc1ccccc1)[C@@H](O)CCC(=O)NC(c1cc2ccccc2[nH]1)C1CCCCC1 (stereo partly drawn) [(2S)-N-[(2S,3S)-5-{[cyclohexyl(1H-indol-2-yl)methyl]carbamoyl}-3-hydroxy-1-phenylpentan-2-yl]-2-(quinolin-2-ylformamido)butanediamide]
Second: COC(=O)[C@@H](NC(=O)[C@@H](NC(=O)CC[C@H](O)[C@H](Cc1ccccc1)NC(=O)[C@H](C)NC(=O)[C@H](C)N)C(C)C)C(C)C [methyl (2S)-2-[(2S)-2-[(4S,5S)-5-[(2S)-2-[(2S)-2-aminopropanamido]propanamido]-4-hydroxy-6-phenylhexanamido]-3-methylbutanamido]-3-methylbutanoate]
The Ki of the first is 10-fold higher: 180 nM for the first, 18 nM for the second. The second binds more tightly here.
